Assays:
Type in all cases: in vivo
[1] = test system: Italian ryegrass (Lolium multiflorum); test: Test A postemergence, visual plant response rating; details: for Ryegrass, Italian plant response rating (0 to 100 scale): 500 g ai/ha, postemergence, 0 is no effect, 100 is complete control; for Ryegrass, Italian plant response rating: Postemergence, 125 g ai/ha, 0 to 100 scale (0 no effect, 100 complete control)
How it was run: (§1)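 Compared with untreated controls, treated plants received a visual injury score on a 0–100 scale around 10 days after application. The compound, in a non-phytotoxic solvent with surfactant, was given as a preemergence soil spray or postemergence at the one- to two-leaf stage.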

[2] = test system: galium (catchweed bedstraw, Galium aparine); test: Test A postemergence, visual plant response rating; details: for Galium plant response rating (0 to 100 scale): 500 g ai/ha, postemergence, 0 is no effect, 100 is complete control; for Galium plant response rating: Postemergence, 125 g ai/ha, 0 to 100 scale (0 no effect, 100 complete control)
How it was run: as §1

[3] = test system: blackgrass (Alopecurus myosuroides); test: Test A postemergence, visual plant response rating; details: for Blackgrass plant response rating (0 to 100 scale): 500 g ai/ha, postemergence, 0 is no effect, 100 is complete control; for Blackgrass plant response rating: Postemergence, 125 g ai/ha, 0 to 100 scale (0 no effect, 100 complete control)
How it was run: as §1

[4] = test system: foxtail, green (green foxtail, Setaria viridis); test: Test A postemergence, visual plant response rating; details: for Foxtail, Green plant response rating (0 to 100 scale): 500 g ai/ha, postemergence, 0 is no effect, 100 is complete control; for Foxtail, Green plant response rating: Postemergence, 125 g ai/ha, 0 to 100 scale (0 no effect, 100 complete control)
How it was run: as §1

kochia (Kochia scoparia) [5] = test: Test A postemergence, visual plant response rating; details: for Kochia plant response rating (0 to 100 scale): 500 g ai/ha, postemergence, 0 is no effect, 100 is complete control; for Kochia plant response rating: Postemergence, 125 g ai/ha, 0 to 100 scale (0 no effect, 100 complete control)
How it was run: as §1

[6] = test system: ragweed (common ragweed, Ambrosia elatior); test: Test A postemergence, visual plant response rating; details: for Ragweed plant response rating (0 to 100 scale): 500 g ai/ha, postemergence, 0 is no effect, 100 is complete control; for Ragweed plant response rating: Postemergence, 125 g ai/ha, 0 to 100 scale (0 no effect, 100 complete control)
How it was run: as §1

corn (Zea mays) = test: Test A postemergence, visual plant response rating; details: for Corn plant response rating (0 to 100 scale): 500 g ai/ha, postemergence, 0 is no effect, 100 is complete control; for Corn plant response rating: Postemergence, 125 g ai/ha, 0 to 100 scale (0 no effect, 100 complete control)
How it was run: as §1

[7] = test system: pigweed (Amaranthus retroflexus); test: Test A postemergence, visual plant response rating; details: for Pigweed plant response rating (0 to 100 scale): 500 g ai/ha, postemergence, 0 is no effect, 100 is complete control; for Pigweed plant response rating: Postemergence, 125 g ai/ha, 0 to 100 scale (0 no effect, 100 complete control)
How it was run: as §1

[8] = test system: barnyardgrass (Echinochloa crus-galli); test: Test A postemergence, visual plant response rating; details: for Barnyardgrass plant response rating (0 to 100 scale): 500 g ai/ha, postemergence, 0 is no effect, 100 is complete control; for Barnyardgrass plant response rating: Postemergence, 125 g ai/ha, 0 to 100 scale (0 no effect, 100 complete control)
How it was run: as §1

[9] = test system: wheat (Triticum aestivum); test: Test A postemergence, visual plant response rating; details: for Wheat plant response rating (0 to 100 scale): 500 g ai/ha, postemergence, 0 is no effect, 100 is complete control; for Wheat plant response rating: Postemergence, 125 g ai/ha, 0 to 100 scale (0 no effect, 100 complete control)
How it was run: as §1

[10] = test system: sedge, umbrella (small-flower umbrella sedge, Cyperus difformis); test: Test B flooded paddy test, visual plant response rating; details: 250 g ai/ha, Flood, applied to paddy water, 2-leaf stage, evaluated after 13 to 15 days
How it was run: (§2)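 Compounds added straight into paddy water of pots flooded to 3 cm, with 2-leaf-stage plants of the four species; water level held throughout.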

rice (Oryza sativa) = test: as above; details: 250 g ai/ha, Flood, applied to paddy water, 2-leaf stage, evaluated after 13 to 15 days
How it was run: as §2

[11] = test system: barnyardgrass (Echinochloa crus-galli); test: as above; details: 250 g ai/ha, Flood, applied to paddy water, 2-leaf stage, evaluated after 13 to 15 days
How it was run: as §2

[12] = test system: ducksalad (Heteranhera limosa); test: as above; details: 250 g ai/ha, Flood, applied to paddy water, 2-leaf stage, evaluated after 13 to 15 days
How it was run: as §2

[13] = test system: Italian ryegrass (Lolium multiflorum); test: Test A preemergence, visual plant response rating; details: approx. 10 days
How it was run: as §1

[14] = test system: foxtail, green (green foxtail, Setaria viridis); test: Test A preemergence, visual plant response rating; details: approx. 10 days
How it was run: as §1

kochia (Kochia scoparia) [15] = test: Test A preemergence, visual plant response rating; details: approx. 10 days
How it was run: as §1

[16] = test system: ragweed (common ragweed, Ambrosia elatior); test: Test A preemergence, visual plant response rating; details: approx. 10 days
How it was run: as §1

[17] = test system: pigweed (Amaranthus retroflexus); test: Test A preemergence, visual plant response rating; details: approx. 10 days
How it was run: as §1

[18] = test system: barnyardgrass (Echinochloa crus-galli); test: Test A preemergence, visual plant response rating; details: approx. 10 days
How it was run: as §1

| Structure (SMILES) | Ryegrass, Italian plant response rating (0 to 100 scale) [1] | Ryegrass, Italian plant response rating [1] | Galium plant response rating (0 to 100 scale) [2] | Galium plant response rating [2] | Blackgrass plant response rating (0 to 100 scale) [3] | Blackgrass plant response rating [3] | Foxtail, Green plant response rating (0 to 100 scale) [4] | Foxtail, Green plant response rating [4] | Kochia plant response rating (0 to 100 scale) (kochia (Kochia scoparia) [5]) | Kochia plant response rating (kochia (Kochia scoparia) [5]) | Ragweed plant response rating (0 to 100 scale) [6] | Ragweed plant response rating [6] | Corn plant response rating (0 to 100 scale) (corn (Zea mays)) | Corn plant response rating (corn (Zea mays)) | Pigweed plant response rating (0 to 100 scale) [7] | Pigweed plant response rating [7] | Barnyardgrass plant response rating (0 to 100 scale) [8] | Barnyardgrass plant response rating [8] | Wheat plant response rating (0 to 100 scale) [9] | Wheat plant response rating [9] | further results |
| --- | --- | --- | --- | --- | --- | --- | --- | --- | --- | --- | --- | --- | --- | --- | --- | --- | --- | --- | --- | --- | --- |
| CO/N=C(/c1cccc(C)c1)c1c(O)c(C2CC2)nn(C)c1=O [Compound 28] | 10 | 0 | 60 | 20 | 40 | 0 | 10 | 0 | 0 | 0 | 40 | 0 | 0 | 0 | 40 | 30 | 30 | 0 | 0 | 0 | Plant response rating, Sedge, Umbrella (0 to 100 scale, 0 is no effect, 100 is complete control) [10]: 0; Plant response rating, Rice (0 to 100 scale, 0 is no effect, 100 is complete control) (rice (Oryza sativa)): 0; Plant response rating, Barnyardgrass (0 to 100 scale, 0 is no effect, 100 is complete control) [11]: 0; Plant response rating, Ducksalad (0 to 100 scale, 0 is no effect, 100 is complete control) [12]: 0; Ryegrass, Italian plant response rating (0 to 100 scale) ([13]; 125 g ai/ha Preemergence): 0; Ryegrass, Italian plant response rating (0 to 100 scale) ([13]; 500 g ai/ha Preemergence): 0; Foxtail, Green plant response rating (0 to 100 scale) ([14]; 125 g ai/ha Preemergence): 0; Foxtail, Green plant response rating (0 to 100 scale) ([14]; 500 g ai/ha Preemergence): 30; Kochia plant response rating (0 to 100 scale) (kochia (Kochia scoparia) [15]; 125 g ai/ha Preemergence): 0; Kochia plant response rating (0 to 100 scale) (kochia (Kochia scoparia) [15]; 500 g ai/ha Preemergence): 0; Ragweed plant response rating (0 to 100 scale) ([16]; 125 g ai/ha Preemergence): 0; Ragweed plant response rating (0 to 100 scale) ([16]; 500 g ai/ha Preemergence): 10; Pigweed plant response rating (0 to 100 scale) ([17]; 125 g ai/ha Preemergence): 0; Pigweed plant response rating (0 to 100 scale) ([17]; 500 g ai/ha Preemergence): 10; Barnyardgrass plant response rating (0 to 100 scale) ([18]; 125 g ai/ha Preemergence): 0; Barnyardgrass plant response rating (0 to 100 scale) ([18]; 500 g ai/ha Preemergence): 0 |
| CO/N=C(/c1cc(C)ccc1C)c1c(O)c(C)nn(C)c1=O [Compound 30] | 70 | 40 | 80 | 60 | 80 | 10 | 40 | 0 | 30 | 10 | 60 | 40 | 0 | 0 | 50 | 30 | 40 | 20 | 30 | 10 | Plant response rating, Sedge, Umbrella (0 to 100 scale, 0 is no effect, 100 is complete control) [10]: 0; Plant response rating, Rice (0 to 100 scale, 0 is no effect, 100 is complete control) (rice (Oryza sativa)): 0; Plant response rating, Barnyardgrass (0 to 100 scale, 0 is no effect, 100 is complete control) [11]: 0; Plant response rating, Ducksalad (0 to 100 scale, 0 is no effect, 100 is complete control) [12]: 0; Ryegrass, Italian plant response rating (0 to 100 scale) ([13]; 125 g ai/ha Preemergence): 20; Ryegrass, Italian plant response rating (0 to 100 scale) ([13]; 500 g ai/ha Preemergence): 50; Foxtail, Green plant response rating (0 to 100 scale) ([14]; 125 g ai/ha Preemergence): 0; Foxtail, Green plant response rating (0 to 100 scale) ([14]; 500 g ai/ha Preemergence): 60; Kochia plant response rating (0 to 100 scale) (kochia (Kochia scoparia) [15]; 125 g ai/ha Preemergence): 0; Kochia plant response rating (0 to 100 scale) (kochia (Kochia scoparia) [15]; 500 g ai/ha Preemergence): 30; Ragweed plant response rating (0 to 100 scale) ([16]; 125 g ai/ha Preemergence): 20; Ragweed plant response rating (0 to 100 scale) ([16]; 500 g ai/ha Preemergence): 70; Pigweed plant response rating (0 to 100 scale) ([17]; 125 g ai/ha Preemergence): 30; Pigweed plant response rating (0 to 100 scale) ([17]; 500 g ai/ha Preemergence): 80; Barnyardgrass plant response rating (0 to 100 scale) ([18]; 125 g ai/ha Preemergence): 0; Barnyardgrass plant response rating (0 to 100 scale) ([18]; 500 g ai/ha Preemergence): 50 |
